Measurements: patent US20100143455A1, “Triazole antifungal agents” (priority 2008, published 2010)

How the values were obtained:
[1] = test system: Ergosterol Biosynthesis, Candida albicans_C286; assay: Inhibition of ergosterol biosynthesis; type: cell-based, Candida albicans; details: RPMI-1640, 30° C., 48 h, read-out: IC50 Values for Inhabitation of Ergosterol Biosynthesis
Procedure: (§1) Compounds of the invention were tested for their ability to inhibit ergosterol biosynthesis. Testing was performed in 96-well round-bottom microtitration plates. Cell suspensions were prepared in RPMI-1640 medium and were adjusted to give a final inoculum concentration of 0.5×10^3 to 2.5×10^3 cells/ml. The plates were incubated incubated at 30° C. for 48 h before growth was assessed. The MIC of each compounds was defined as the lowest concentration at which there was 80% inhibition of growth compared with that in a drug-free control [O. N. Breivik and J. L. Owades, Agric. Food Chem., 5 (1957) 360-363; T. F. Patterson, S. G. Revankar, W. R. Kirkpatrick, O. Dib, A. W. Fothergill, S. W. Redding, D. A. Sutton and M. G. Rinaldi, J. Clin. Microbiol., 34 (1996) 1794-1797]. Ergosterol content was calculated as a percentage of the wet weight of the cell [National Committee for Clinical Laboratory Standards. 1997. Reference method for broth dilution antifungal susceptibility testing of yeasts, Approved standard. Document M27-A, National Committee for Clinical Laboratory Standards, Wayne, Pa.].

[2] = test system: Ergosterol Biosynthesis, Aspergillus fumigatus_ND 158; assay: Inhibition of ergosterol biosynthesis; type: cell-based, Aspergillus fumigatus; details: RPMI-1640, 30° C., 48 h, read-out: IC50 Values for Inhabitation of Ergosterol Biosynthesis
Procedure: as §1

Aspergillus Flavus = assay: In vitro activity test, agar dilution method (GMMIC); type: cell-based; details: 9 organisms, Kimmig's agar, 25° C.
Procedure: (§2) Organisms listed in Table 4 were tested according to an agar dilution method: Suspensions of each microorganism were prepared to contain […] colony forming units (cfu)/mL. All drugs were dissolved in a few drops of DMSO then diluted with ethanol—water (1/1, v/v) to make a stock solution of 500 μg/mL. The agar dilution method was performed in a medium of Kimmig's agar (K. A., Merck) −0.5% glycerol [R. A. Fromtling, G. K. Abruzzo and A. Ruiz, Mycopathologia, 106 (1989) 163-166]. Plates of Kimmig's agar containing serial dilutions (25 to 0.01 μg/mL) of the drugs were inoculated with 10 μL of the fungal inocula and incubated at 25° C. […] for yeasts and up to 5 days for filamentous fungi. Following incubation, GMMICs (geometric mean minimum inhibitory concentration μg/mL) were determined. In the table POCZ indicates posaconazole, ITRZ indicates itraconazole, and FLUZ indicates fluconazole. [Patterson, T. F., S. G. Revankar, W. R. Kirkpatrick, O. Dib, A. W. Fothergill, S. W. Redding, D. A. Sutton, and M. G. Rinaldi, J. Clin. Microbiol. 34 (1996) 1794-1797].

Candida Krusei = assay: as above; type: cell-based; details: 22 organisms, Kimmig's agar, 25° C.
Procedure: as §2

Cryptococcus neoformans = assay: as above; type: cell-based; details: 10 organisms, Kimmig's agar, 25° C.
Procedure: as §2

Microsporum canis = assay: as above; type: cell-based; details: 6 organisms, Kimmig's agar, 25° C.
Procedure: as §2

Trichophyton rubrum = assay: as above; type: cell-based; details: 17 organisms, Kimmig's agar, 25° C.
Procedure: as §2

SMILES: CC(O)C(C)n1ncn(-c2ccc(N3CCN(c4ccc(SCC5OCC(Cn6cncn6)(c6ccc(F)cc6F)O5)cc4)CC3)cc2)c1=O (centres unmarked) [I-Re (D), 4-(4-(4-(4-((4-((1H-1,2,4-triazol-1-yl)methyl)-4-(2,4-difluorophenyl)-1,3-dioxolan-2-yl)methylthio)phenyl)piperazin-1-yl)phenyl)-1-(3-hydroxybutan-2-yl)-1H-1,2,4-triazol-5(4H)-one]
- IC50 [1]: 31.9 nM

SMILES: CC(O)C(C)n1ncn(-c2ccc(N3CCN(c4ccc(SCC5CCC(Cn6cncn6)(c6ccc(F)cc6F)O5)cc4)CC3)cc2)c1=O (centres unmarked) [I-Re (T), 4-(4-(4-(4-((5-((1H-1,2,4-triazol-1-yl)methyl)-5-(2,4-difluorophenyl)tetrahydrofuran-2-yl)methylthio)phenyl)piperazin-1-yl)phenyl)-1-(3-hydroxybutan-2-yl)-1H-1,2,4-triazol-5(4H)-one]
- IC50 [2]: 9.6 nM

SMILES: CCC(C(C)O)n1ncn(-c2ccc(N3CCN(c4ccc(SCC5OCC(Cn6cncn6)(c6ccc(F)cc6F)O5)cc4)CC3)cc2)c1=O (centres unmarked) [I-Rf (D), 4-(4-(4-(4-((4-((1H-1,2,4-triazol-1-yl)methyl)-4-(2,4-difluorophenyl)-1,3-dioxolan-2-yl)methylthio)phenyl)piperazin-1-yl)phenyl)-1-(2-hydroxypentan-3-yl)-1H-1,2,4-triazol-5(4H)-one]
- IC50 [1]: 33.4 nM
- IC50 [2]: 9.9 nM

SMILES: CCC(C(C)O)n1ncn(-c2ccc(N3CCN(c4ccc(SCC5CCC(Cn6cncn6)(c6ccc(F)cc6F)O5)cc4)CC3)cc2)c1=O (centres unmarked) [I-Rf (T), 4-(4-(4-(4-((5-((1H-1,2,4-triazol-1-yl)methyl)-5-(2,4-difluorophenyl)tetrahydrofuran-2-yl)methylthio)phenyl)piperazin-1-yl)phenyl)-1-(2-hydroxypentan-3-yl)-1H-1,2,4-triazol-5(4H)-one]
- IC50 [1]: 32.1 nM
- IC50 [2]: 9.5 nM

SMILES: C=CC(C)n1ncn(-c2ccc(N3CCN(c4ccc(SCC5OCC(Cn6cncn6)(c6ccc(F)cc6F)O5)cc4)CC3)cc2)c1=O (centres unmarked) [I-Rg (D), 4-(4-(4-(4-((4-((1H-1,2,4-triazol-1-yl)methyl)-4-(2,4-difluorophenyl)-1,3-dioxolan-2-yl)methylthio)phenyl)piperazin-1-yl)phenyl)-1-(but-3-en-2-yl)-1H-1,2,4-triazol-5(4H)-one]
- IC50 [1]: 33.8 nM
- IC50 [2]: 10.2 nM

SMILES: CCC(C)n1ncn(-c2ccc(N3CCN(c4ccc(CSC5OCC(Cn6cncn6)(c6ccc(F)cc6F)O5)cc4)CC3)cc2)c1=O (centres unmarked) [II-Ra (D), 4-(4-(4-(4-((4-((1H-1,2,4-triazol-1-yl)methyl)-4-(2,4-difluorophenyl)-1,3-dioxolan-2-ylthio)methyl)phenyl)piperazin-1-yl)phenyl)-1-sec-butyl-1H-1,2,4-triazol-5(4H)-one]
- IC50 [1]: 34.3 nM
- IC50 [2]: 10.3 nM

SMILES: CCC(C(C)O)n1ncn(-c2ccc(N3CCN(c4ccc(CSC5OCC(Cn6cncn6)(c6ccc(F)cc6F)O5)cc4)CC3)cc2)c1=O (centres unmarked) [II-Rf (D), 4-(4-(4-(4-((4-((1H-1,2,4-triazol-1-yl)methyl)-4-(2,4-difluorophenyl)-1,3-dioxolan-2-ylthio)methyl)phenyl)piperazin-1-yl)phenyl)-1-(2-hydroxypentan-3-yl)-1H-1,2,4-triazol-5(4H)-one]
- IC50 [1]: 31.1 nM
- IC50 [2]: 9.8 nM

SMILES: CCC(C(C)O)n1ncn(-c2ccc(N3CCN(c4ccc(CSC5CCC(Cn6cncn6)(c6ccc(F)cc6F)O5)cc4)CC3)cc2)c1=O (centres unmarked) [II-Rf (T), 4-(4-(4-(4-((5-((1H-1,2,4-triazol-1-yl)methyl)-5-(2,4-difluorophenyl)tetrahydrofuran-2-ylhio)methyl)phenyl)piperazin-1-yl)phenyl)-1-(2-hydroxypentan-3-yl)-1H-1,2,4-triazol-5(4H)-one]
- IC50 [1]: 32.9 nM
- IC50 [2]: 9.3 nM

SMILES: CCC(C)n1ncn(-c2ccc(N3CCN(c4ccc(OCC5COC(Cn6cncn6)(c6ccc(Cl)cc6Cl)O5)cc4)CC3)cc2)c1=O (centres unmarked) [ITRZ, itraconazole]
- GMMICS (geometric mean minimum inhibitory concentration) (Aspergillus Flavus): 0.35 µg/mL
- GMMICS (geometric mean minimum inhibitory concentration) (Candida Krusei): 0.60 µg/mL
- GMMICS (geometric mean minimum inhibitory concentration) (Cryptococcus neoformans): 0.49 µg/mL
- GMMICS (geometric mean minimum inhibitory concentration) (Microsporum canis): 1.2 µg/mL
- GMMICS (geometric mean minimum inhibitory concentration) (Trichophyton rubrum): 3.1 µg/mL

SMILES: CC[C@@H]([C@H](C)O)n1ncn(-c2ccc(N3CCN(c4ccc(OC[C@@H]5CO[C@@](Cn6cncn6)(c6ccc(F)cc6F)C5)cc4)CC3)cc2)c1=O [POCZ, posaconazole, reference compound]
- IC50 [2]: 11.8 nM
